Legend:
Type in all cases: biochemical
Conditions in all cases: human recombinant enzyme (Sf9); FIGS. 14 and 15; test concentration not given
PDE1B = target: T1, PDE1B (Homo sapiens, UniProt Q01064); assay: PDE1B enzyme inhibition (HTRF, cGMP substrate)
T1 construct: host or cells: Sf9
Procedure: The effects of BL-230 and BL-236 compounds on the activity of PDE1B human enzymes were quantified by measuring the production of guanosine 5′-monophosphate (5′GMP) from cyclic guanosine monophosphate (cGMP), using human recombinant enzyme expressed in Sf9 cells, and the detection method was by using HTRF® (Homogeneous Time Resolved Fluorescence Technology).
The test compound, the reference compound or the water (control) were mixed with 0.07 U from the enzyme PDE1B in a buffer containing 44.4 mM Tris-hydroxymethyl aminomethane hydrochloride (Tris-HCl), 5.28 mM magnesium chloride (MgCl2), 0.88 mM calcium chloride (CaCl2), 2.64 mM dithiothreitol (DTT) and 0.198 U of calmodulin and 0.044% polysorbate 20 (Tween® 20) (pH 7.8). […] The fluorescence acceptor (Dye2 labeled cGMP) and fluorescence donor (anti-cGMP antibody labeled with europium cryptate) were added in the presence of 1 mM 3-isobutyl-1-methylxanthine (IBMX). After 60 minutes, the transfer of fluorescence corresponding to the amount of residual cGMP was measured at λex=337 nm, λem=620 nm and λem=665 nm using a microplate reader (RubyStar, BMG). The enzyme activity was determined by the signal division measured at 665 nm, by the measured signal at 620 nm (right). The results were expressed as a inhibition percentage of the control enzyme activity. […]

PDE4B1 = target: T2, PDE4B1 (Homo sapiens, UniProt Q07343); assay: PDE4B1 enzyme inhibition (HTRF, cAMP substrate)
T2 construct: host or cells: Sf9
T2 sequence (Q07343 whole entry): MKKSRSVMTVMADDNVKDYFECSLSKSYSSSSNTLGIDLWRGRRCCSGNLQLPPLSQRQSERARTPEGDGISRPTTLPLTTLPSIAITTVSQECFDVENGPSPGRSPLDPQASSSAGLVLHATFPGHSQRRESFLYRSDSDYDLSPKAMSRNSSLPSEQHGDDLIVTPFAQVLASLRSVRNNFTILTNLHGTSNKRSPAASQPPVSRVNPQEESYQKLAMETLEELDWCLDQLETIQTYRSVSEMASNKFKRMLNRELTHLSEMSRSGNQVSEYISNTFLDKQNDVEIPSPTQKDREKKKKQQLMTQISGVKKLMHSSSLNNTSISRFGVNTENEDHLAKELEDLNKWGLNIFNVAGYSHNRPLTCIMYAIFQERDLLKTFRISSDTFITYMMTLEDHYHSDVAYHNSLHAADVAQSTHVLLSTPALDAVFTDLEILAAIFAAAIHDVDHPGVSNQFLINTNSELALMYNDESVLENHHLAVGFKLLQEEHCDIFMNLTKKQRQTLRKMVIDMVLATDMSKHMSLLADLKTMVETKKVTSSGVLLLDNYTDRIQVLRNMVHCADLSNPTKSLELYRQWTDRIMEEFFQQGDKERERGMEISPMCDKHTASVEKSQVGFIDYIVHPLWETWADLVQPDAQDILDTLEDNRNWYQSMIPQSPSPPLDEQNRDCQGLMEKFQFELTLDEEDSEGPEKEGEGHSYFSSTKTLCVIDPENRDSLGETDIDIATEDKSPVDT
Source text: (§1) The effects of the BL-230 and BL-236 compounds on the activity of the human enzymes PDE2A1, PDE3A, PDE4A1A, PDE4B1, PDE7A, PDE8A1, and PDE10A2 and PDE11A4 were quantified by measuring the production of adenosine 5′-monophosphate (5′AMP) from cyclic adenosine monophosphate (cAMP), with human recombinant enzyme expressed in Sf9 cells and the detection method was by using HTRF®.
(§2) The test compound, the reference compound or water (control) were mixed with the enzyme (the enzymes and their amounts used are described in Table 1) in a buffer containing 44.4 mM Tris-HCl, 5.28 mM MgCl2, 2.64 mM DTT and 0.044% Tween® 20 (pH 7.8). Then, the reaction was initiated by the addition of 40 nM of cAMP substrate and the mixture was incubated for 30 minutes at room temperature. For basal control measurements, the enzyme was omitted from the reaction mixture. The fluorescence acceptor (Dye2 labeled cAMP) and fluorescence donor (anti-cAMP antibody labeled with europium cryptate) were added in the presence of 1 mM IBMX. After 60 minutes, the fluorescence corresponding to the amount of transfer residual cAMP was measured at λex=337 nm, λem=620 nm and λem=665 nm using a microplate reader (RubyStar, BMG). The enzyme activity was determined by the signal division measured at 665 nm, by the measured signal at 620 nm (right). The results were expressed as a inhibition percentage of the control enzyme activity. […]

PDE8A1 = target: T3, PDE8A1 (Homo sapiens, UniProt O60658); assay: PDE8A1 enzyme inhibition (HTRF, cAMP substrate)
T3 construct: host or cells: Sf9
T3 sequence (O60658 whole entry): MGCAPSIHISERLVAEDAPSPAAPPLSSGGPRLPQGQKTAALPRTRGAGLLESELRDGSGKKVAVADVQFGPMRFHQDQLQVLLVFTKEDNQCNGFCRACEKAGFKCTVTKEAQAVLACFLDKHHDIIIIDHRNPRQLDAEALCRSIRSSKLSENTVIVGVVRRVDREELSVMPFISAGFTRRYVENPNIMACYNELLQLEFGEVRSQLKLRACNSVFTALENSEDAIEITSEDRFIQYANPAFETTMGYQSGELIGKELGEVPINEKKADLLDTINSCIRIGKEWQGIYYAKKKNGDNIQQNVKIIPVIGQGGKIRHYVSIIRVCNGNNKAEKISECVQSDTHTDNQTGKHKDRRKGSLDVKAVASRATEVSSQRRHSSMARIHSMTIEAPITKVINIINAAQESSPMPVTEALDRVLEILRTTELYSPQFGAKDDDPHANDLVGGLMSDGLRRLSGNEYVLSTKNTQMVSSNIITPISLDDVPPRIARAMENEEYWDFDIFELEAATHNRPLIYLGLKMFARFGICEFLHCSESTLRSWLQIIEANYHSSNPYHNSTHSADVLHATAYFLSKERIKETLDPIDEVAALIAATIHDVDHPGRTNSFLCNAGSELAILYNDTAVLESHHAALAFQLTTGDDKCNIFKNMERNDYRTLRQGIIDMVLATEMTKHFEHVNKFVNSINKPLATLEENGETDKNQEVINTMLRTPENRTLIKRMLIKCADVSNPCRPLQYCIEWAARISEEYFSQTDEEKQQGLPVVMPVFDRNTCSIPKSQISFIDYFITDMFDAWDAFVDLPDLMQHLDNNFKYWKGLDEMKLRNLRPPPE
Source text: as §1, §2

PDE3B = target: T4, PDE3B (Homo sapiens, UniProt Q13370); assay: PDE3B enzyme inhibition (HTRF, cAMP substrate)
T4 construct: host or cells: Sf9
T4 sequence (Q13370 whole entry): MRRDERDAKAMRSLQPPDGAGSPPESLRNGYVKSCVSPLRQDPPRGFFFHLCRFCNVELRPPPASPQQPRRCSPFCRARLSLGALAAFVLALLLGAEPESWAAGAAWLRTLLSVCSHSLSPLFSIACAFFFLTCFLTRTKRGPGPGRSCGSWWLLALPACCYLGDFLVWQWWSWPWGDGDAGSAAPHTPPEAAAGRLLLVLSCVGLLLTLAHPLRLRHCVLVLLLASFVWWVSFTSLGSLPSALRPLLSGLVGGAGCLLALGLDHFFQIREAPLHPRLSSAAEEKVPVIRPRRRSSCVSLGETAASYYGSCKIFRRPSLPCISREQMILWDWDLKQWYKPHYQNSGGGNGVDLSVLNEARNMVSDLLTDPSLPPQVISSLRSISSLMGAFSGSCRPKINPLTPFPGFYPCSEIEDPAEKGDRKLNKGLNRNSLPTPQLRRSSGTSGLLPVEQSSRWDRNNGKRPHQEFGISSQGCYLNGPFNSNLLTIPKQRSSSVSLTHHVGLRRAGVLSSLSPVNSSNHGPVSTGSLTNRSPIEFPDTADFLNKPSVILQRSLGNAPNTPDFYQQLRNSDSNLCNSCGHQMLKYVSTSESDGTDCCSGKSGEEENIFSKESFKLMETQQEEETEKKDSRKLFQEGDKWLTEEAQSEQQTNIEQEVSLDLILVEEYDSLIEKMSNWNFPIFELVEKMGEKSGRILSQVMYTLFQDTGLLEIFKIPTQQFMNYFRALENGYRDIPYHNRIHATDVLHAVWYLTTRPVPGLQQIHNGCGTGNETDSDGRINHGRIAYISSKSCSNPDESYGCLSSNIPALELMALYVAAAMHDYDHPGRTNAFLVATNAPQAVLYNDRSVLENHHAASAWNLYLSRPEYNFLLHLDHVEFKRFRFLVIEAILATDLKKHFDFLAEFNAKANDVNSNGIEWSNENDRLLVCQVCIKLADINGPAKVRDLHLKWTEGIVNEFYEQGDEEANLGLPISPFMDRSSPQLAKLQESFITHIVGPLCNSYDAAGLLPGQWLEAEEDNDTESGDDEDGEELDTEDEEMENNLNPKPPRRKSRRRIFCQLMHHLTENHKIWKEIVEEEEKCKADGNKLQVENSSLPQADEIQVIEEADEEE
Procedure: The effects of compounds BL-230 and BL-236 on human PDE3B enzyme activity was quantified by measuring the production of 5′AMP from CAMP using human recombinant enzyme expressed in Sf9 cells and the detection method was by using HTRF®.
The test compound, the reference compound or water (control) were mixed with 0.7 U of the enzyme PDE3B in a buffer containing 50 mM Tris-HCl, 6 mM MgCl2, 3 mM DTT and 0.05% Tween® 20 (pH 7.8). Then, the reaction was initiated by addition of 40 nM of cAMP substrate and the mixture was incubated for 30 minutes at 22° C. For basal control measurements, the enzyme was omitted from the reaction mixture. The fluorescence acceptor (Dye2 labeled cAMP) and fluorescence donor (anti-cAMP antibody labeled with europium cryptate) were added in the presence of 1 mM IBMX. After 60 minutes, the transfer of fluorescence corresponding to the amount of residual cAMP was measured at λex=337 nm, λem=620 nm and λem=665 nm using a microplate reader (RubyStar, BMG). The enzyme activity was determined by the signal division measured at 665 nm, by the signal measured at 620 nm (right). The results were expressed as an inhibition percentage of the control enzyme activity. The standard inhibitory reference compound milrinone was used, which was tested in each experiment at several concentrations to obtain an inhibition curve from which its IC50 value was calculated. […]

O=C1C2=C(c3c[nH]c4ccccc34)OC(c3ccc4c(c3)OCO4)N2C(=O)CN1CCO (centres unmarked) [BL-230, 3-(benzo[d][1,3]dioxol-5yl)-7-(2-hydroxyethyl)-1-(1H-indol-3-yl)-6,7-dihydro-3H-oxazolo[3,4-a]pyrazine-5,8-dione]
did not inhibit: inhibition of PDE1B enzyme activity (PDE1B) | inhibition of PDE4B1 enzyme activity (PDE4B1) | inhibition of PDE8A1 enzyme activity (PDE8A1) | inhibition of PDE3B enzyme activity (PDE3B)

C[C@@H](CO)N1CC(=O)N2C(=C(c3c[nH]c4ccccc34)OC2c2ccc3c(c2)OCO3)C1=O (stereo partly drawn) [BL-236, 3-(benzo[d][1,3]dioxol-5yl)-7-((S)1-hydroxypropan-2yl)-1-(1H-indol-3-yl)-6,7-dihydro-3H-oxazolo[3,4-a]pyrazine-5,8-dione]
did not inhibit: inhibition of PDE1B enzyme activity (PDE1B) | inhibition of PDE4B1 enzyme activity (PDE4B1) | inhibition of PDE8A1 enzyme activity (PDE8A1) | inhibition of PDE3B enzyme activity (PDE3B)
